Experimental data taken from patent US5556846A, “17-heterocyclyl-14beta-5alpha-androstane, androstene and androstadiene derivatives active on the cardiovascular system, and pharmaceutical compositions containing same” (Sigma-Tau Industrie Farmaceutiche Riunite S.p.A., priority 1992, dated 1996).

Legend:
Na^+,K^+ -ATPase [1] = biological target: T1, Na^+,K^+ -ATPase (Homo sapiens, UniProt P05023); assay: displacement of the specific 3H-ouabain binding from the purified Na+,K+-ATPase receptor
T1 construct: Na^+,K^+ -ATPase receptor purified according to Jorghensen; from tissue
Excerpt: (§1) To test the affinity for the receptor site of the Na^+,K^+ -ATPase and the inhibitory activity on the enzyme, the following tests were used: a) displacement of the specific ^3 H-ouabain binding from the Na^+,K^+ -ATPase receptor purified according to Jorghensen (Jorghensen P., BBA, 1974, 356, 36) and Erdmann (Erdmann E. et at., Arzneim.Forsh., 1984, 34, 1314): b) inhibition of the activity of the purified Na^+,K^+ -ATPase measured as % of hydrolysis of ^32 P-ATP in presence and in absence of the tested compound (Doucet A. et at., Am.

Na^+,K^+ -ATPase [2] = biological target: T1, Na^+,K^+ -ATPase; assay: inhibition of the activity of the purified Na+,K+-ATPase measured as % of hydrolysis of 32P-ATP; format: biochemical
Excerpt: as §1

[3] = system: spontaneous hypertensive rats (MHS); assay: blood pressure lowering in spontaneous hypertensive MHS rats (indirect tail-cuff, oral, ten days); format: in vivo, rat (Milan hypertensive strain; settings: n = 7, 20 mg/Kg/os daily in METHOCEL 0.5% w/v; for SBP (systolic blood pressure): controls 172 +/- 2.0; for HR (heart rate): controls 328 +/- 8.6
Excerpt: To test the affinity for the receptor site of the Na^+,K^+ -ATPase and the inhibitory activity on the enzyme, the following tests were used: a) displacement of the specific ^3 H-ouabain binding from the Na^+,K^+ -ATPase receptor purified according to Jorghensen (Jorghensen P., BBA, 1974, 356, 36) and Erdmann (Erdmann E. et at., Arzneim.Forsh., 1984, 34, 1314): b) inhibition of the activity of the purified Na^+,K^+ -ATPase measured as % of hydrolysis of ^32 P-ATP in presence and in absence of the tested compound (Doucet A. et at., Am. […] The ability of these compounds to lower blood pressure was tested by using animal models with genetic arterial hypertension, in particular, spontaneous hypertensive rats of the Milan (MHS) (Bianchi G., Ferrari P., Barber B. The Milan Hypertensive strain. In Handbook of hypertension. Vol.4: Experimental and genetic models of hypertension. Ed. W. de jong-Elsevier Science Publishers B.V., 1984: 328-349).
The procedure adopted to test the antihypertensive activity of the compounds on the above mentioned model was the following: systolic blood pressure (SBP) and heart rate (HR) were measured by an indirect tail-cuff method in three-month old hypertensive rats (MHS) before beginning the treatment (basal values). The rats were then subdivided in two groups of at least 7 animals each, one receiving the compound the other, the control group, receiving only the vehicle. The compound, suspended in METHOCEL 0.5% (w/v), was administered daily by mouth, for ten days. SBP and HR were measured daily 6 and 24 hours after the treatment. At the end of the ten day treatment period, a washout period of at least two days was carried out, in order to check for how long the SBP was mantained low or the basal values were re-established.

[4] = literature statement; cited from earlier work
[5] = 3H-ouabain displacement, purified Na+,K+-ATPase, read-out: Binding ^3 H-Ouab. Displacement log IC50 (converted)
[6] = purified Na+,K+-ATPase, 32P-ATP hydrolysis, read-out: Inhibitory Activity log IC50 (converted)

Structure (SMILES)	IC50 (Na^+,K^+ -ATPase [1]; [5]) [µM]	IC50 (Na^+,K^+ -ATPase [2]; [6]) [µM]	also measured
C[C@]12C=C[C@H](O)C[C@@H]1CC[C@@H]1[C@@H]2CC[C@]2(C)[C@@](O)(c3ccoc3)CC[C@]12O [Comp. I - ab, 17β-(3-Furyl)-5α-androst-1-ene-3β,14β, 17α-triol]	3.98	31.6	–
C[C@]12CC[C@H]3[C@@H](CCC4=C[C@@H](O)CC[C@@]43C)[C@@]1(O)CC[C@]2(O)c1ccccc1 [Comp. I - ac, 17β-Phenylandrost-4-ene-3β,14β,17α-triol]	6.31	79.4	–
C[C@]12CC[C@H]3[C@@H](CCC4=C[C@@H](OCCCN)CC[C@@]43C)[C@@]1(O)CC[C@]2(O)c1ccccc1 [Comp. I - ae, 3β-(3-Aminopropoxy)-17β-phenylandrost-4-ene-14β,17α-diol]	–	–	SBP (systolic blood pressure) [3]: 157 +/- 3.7 mm Hg; HR (heart rate) [3]: 312 +/- 9.4 beats/min.
C[C@]12CC[C@H]3[C@@H](CCC4=C[C@@H](O)CC[C@@]43C)[C@@]1(O)CC[C@]2(O)c1ccoc1 [Comp. I - ah, 17β-(3-Furyl)androst-4-ene-3β,14β,17α-triol]	3.16	50.1	SBP (systolic blood pressure) [3]: 154 +/- 4.1 mm Hg; HR (heart rate) [3]: 315 +/- 10.1 beats/min.
C[C@]12CC[C@H]3[C@@H](CCC4=C[C@@H](OCCO)CC[C@@]43C)[C@@]1(O)CC[C@]2(O)c1ccoc1 [Comp. I - ai, 3β-(2-Hydroxyethoxy)-17β-(3-furyl)androst-4-ene-14β,17α-diol]	5.01	39.8	–
C[C@]12CC[C@H]3[C@@H](CCC4=C[C@@H](OCCCN)CC[C@@]43C)[C@@]1(O)CC[C@]2(O)c1ccoc1 [Comp. I - aj, 3β-(3-Aminopropoxy)-17β-(3-furyl)androst-4-ene-14β,17α-diol]	1	12.6	SBP (systolic blood pressure) [3]: 150 +/- 3.9 mm Hg; HR (heart rate) [3]: 310 +/- 9.0 beats/min.
C[C@]12CC[C@H]3[C@@H](CC=C4C[C@@H](O)CC[C@@]43C)[C@@]1(O)CC[C@]2(O)c1ccccc1 [Comp. I - ap, 17β-Phenylandrost-5-ene-3β,14β,17α-triol]	7.94	100	–
C[C@]12CC[C@H]3[C@@H](C=CC4=C[C@@H](O)CC[C@@]43C)[C@@]1(O)CC[C@]2(O)c1ccccc1 [Comp. I - au, 17β-Phenylandrosta-4,6-diene-3β,14β,17α-triol]	5.01	31.6	–
C[C@]12CC[C@H](O)C[C@@H]1CC[C@@H]1[C@@H]2CC[C@]2(C)[C@@](O)(c3ccccc3)CC[C@]12O [Comp. I - ay, 17β-Phenyl-5α-androstane-3β,14β,17α-triol]	5.01	79.4	–
COc1ccc([C@@]2(O)CC[C@]3(O)[C@@H]4CCC5=C[C@@H](O)CC[C@]5(C)[C@H]4CC[C@]23C)cc1 [Comp. I - bi, 17β-(4-Methoxyphenyl)androst-4-ene-3β,14β,17α-triol]	3.16	39.8	–
C[C@]12CC[C@H]3[C@@H](CC=C4C[C@@H](O)CC[C@@]43C)[C@@]1(O)CC[C@]2(O)c1ccc(Cl)cc1 [Comp. I - bj, 17β-(4-Chlorophenyl)androst-5-ene-3β,14β,17α-triol]	5.01	100	–
C[C@]12CC[C@H](O)C[C@@H]1CC[C@@H]1[C@@H]2CC[C@]2(C)[C@@](O)(c3ccsc3)CC[C@]12O [Comp. I - bk, 17β-(3-Thienyl)-5α-androstane-3β,14β,17α-triol]	7.94	63.1	–
C[C@]12CC[C@H](O)C[C@@H]1CC[C@@H]1[C@@H]2CC[C@]2(C)[C@@](O)(c3cccnc3)CC[C@]12O [Comp. I - bl, 17β-(3-Pyridyl)-5α-androstane-3β,14β,17α-triol]	5.01	63.1	SBP (systolic blood pressure) [3]: 156 +/- 3.5 mm Hg; HR (heart rate) [3]: 318 +/- 9.5 beats/min.
C[C@]12CC[C@H]3[C@@H](CC=C4C[C@@H](O)CC[C@@]43C)[C@@]1(O)CC[C@]2(O)c1nccs1 [Comp. I - bn, 17β-(2-Thiazolyl)androst-5-ene-3β,14β,17α-triol]	7.94	63.1	–
CN(C)c1ccc([C@@]2(O)CC[C@]3(O)[C@@H]4CC=C5C[C@@H](O)CC[C@]5(C)[C@H]4CC[C@]23C)cc1 [Comp. I - bp, 17β-(4-(N,N-Dimethylaminophenyl))androst-5-ene-3β,14β,17α-triol]	6.31	50.1	–
C[C@]12CC[C@H]3[C@@H](CC=C4C[C@@H](O)CC[C@@]43C)[C@@]1(O)CC[C@]2(O)c1ccco1 [Comp. I - bq, 17β-(2-Furyl)androst-5-ene-3β,14β,17α-triol]	5.01	79.4	–
C[C@]12CC[C@H]3[C@@H](CCC4=C[C@@H](OCCN5CCCC5)CC[C@@]43C)[C@@]1(O)CC[C@]2(O)c1ccoc1 [Comp. I - br, 3β-(2-(1-Prrolidinyl)ethoxy)-17β-(3-furyl)androst-4-ene-14β,17α-diol]	1.58	25.1	–
CNCCO[C@@H]1C=C2CC[C@@H]3[C@H](CC[C@]4(C)[C@@](O)(c5ccoc5)CC[C@]34O)[C@@]2(C)CC1 [Comp. I - bt, 3β-(2-Methylaminoethoxy)-17β-(3-furyl)androst-4-ene-14β,17α-diol]	3.16	50.1	–
C[C@]12CC[C@H]3[C@@H](CCC4=C[C@@H](OCCCNC(=N)N)CC[C@@]43C)[C@@]1(O)CC[C@]2(O)c1ccoc1 [Comp. I - bu]	3.16	63.1	–
C[C@]12CC[C@H]3[C@@H](CCC4=C[C@@H](OCC(O)CO)CC[C@@]43C)[C@@]1(O)CC[C@]2(O)c1ccoc1 (stereo partly drawn) [Comp. I - bv, 3β-((2RS)-2,3-Dihydroxypropoxy)-17β-(3-furyl)androst-4-ene-14β,17α-diol]	3.98	79.4	–
C[C@]12CC[C@H]3[C@@H](CCC4=C[C@@H](OCC(N)CN)CC[C@@]43C)[C@@]1(O)CC[C@]2(O)c1ccoc1 (stereo partly drawn) [Comp. I - bw, 3β-((2RS)-2,3-Diaminopropoxy)-17β-(3-furyl)-androst-4-ene-14β,17α-diol]	3.98	100	–
C[C@]12CC[C@H]3[C@@H](CCC4=C[C@@H](SCCCN)CC[C@@]43C)[C@@]1(O)CC[C@]2(O)c1ccoc1 [Comp. I - by, 3β-(3-Aminopropylthio)-17β-(3-furyl)androst-4-ene-14β,17α-diol]	1.58	12.6	–
C[C@]12CC[C@H](O)C[C@H]1CC[C@@H]1[C@@H]2CC[C@]2(C)[C@@](O)(C3=CC(=O)OC3)CC[C@]12O [Ref. comp., 3β,14β,17α-trihydroxy-5β-card-20(22)-enolide, reference compound]	–	–	IC50 (Na^+,K^+ -ATPase [1]): 1.26 µM; SBP (systolic blood pressure) [3]: 174 +/- 2.1 mm Hg; HR (heart rate) [3]: 340 +/- 10.2 beats/min.; IC50 (Na^+,K^+ -ATPase [2]): 5.01 µM; antihypertensive action [4]: do not show antihypertensive action
